Reference: ChEMBL document CHEMBL4613273, “Discovery of Aryl Formyl Piperidine Derivatives as Potent, Reversible, and Selective Monoacylglycerol Lipase Inhibitors” (J Med Chem, 2020)

What was measured:
[1] = tested on: Mus musculus; assay: Antidepressant activity in ICR mouse model of reserpine-induced depression assessed as immobility time at 5 mg/kg, ig by tail suspension test (reference value: 132.38 +/- 44.51 secs); format: functional
[2] = tested on: Mus musculus; assay: Antidepressant activity in ICR mouse model of reserpine-induced depression assessed as immobility time at 5 mg/kg, ig by forced swim test (reference value: 136.84 +/- 46.69 secs); format: functional
[3] = target: T1, Monoglyceride lipase (Homo sapiens, UniProt Q99685); assay: Inhibition of human recombinant MAGL pre-incubated for 5 mins before MAGL substrate addition and further incubated for 10 mins
T1 sequence (Q99685 whole entry): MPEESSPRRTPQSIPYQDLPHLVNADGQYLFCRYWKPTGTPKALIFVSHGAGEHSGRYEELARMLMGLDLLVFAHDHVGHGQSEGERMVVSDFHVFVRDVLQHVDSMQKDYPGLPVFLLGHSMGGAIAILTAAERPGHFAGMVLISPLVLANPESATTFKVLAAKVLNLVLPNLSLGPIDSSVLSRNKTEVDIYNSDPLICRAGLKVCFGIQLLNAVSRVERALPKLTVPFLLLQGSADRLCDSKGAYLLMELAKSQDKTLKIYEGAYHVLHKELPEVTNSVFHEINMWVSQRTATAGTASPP

[4] = target: T2, Fatty-acid amide hydrolase 1 (Rattus norvegicus, UniProt P97612); assay: Inhibition of rat FAAH
T2 sequence (P97612 whole entry): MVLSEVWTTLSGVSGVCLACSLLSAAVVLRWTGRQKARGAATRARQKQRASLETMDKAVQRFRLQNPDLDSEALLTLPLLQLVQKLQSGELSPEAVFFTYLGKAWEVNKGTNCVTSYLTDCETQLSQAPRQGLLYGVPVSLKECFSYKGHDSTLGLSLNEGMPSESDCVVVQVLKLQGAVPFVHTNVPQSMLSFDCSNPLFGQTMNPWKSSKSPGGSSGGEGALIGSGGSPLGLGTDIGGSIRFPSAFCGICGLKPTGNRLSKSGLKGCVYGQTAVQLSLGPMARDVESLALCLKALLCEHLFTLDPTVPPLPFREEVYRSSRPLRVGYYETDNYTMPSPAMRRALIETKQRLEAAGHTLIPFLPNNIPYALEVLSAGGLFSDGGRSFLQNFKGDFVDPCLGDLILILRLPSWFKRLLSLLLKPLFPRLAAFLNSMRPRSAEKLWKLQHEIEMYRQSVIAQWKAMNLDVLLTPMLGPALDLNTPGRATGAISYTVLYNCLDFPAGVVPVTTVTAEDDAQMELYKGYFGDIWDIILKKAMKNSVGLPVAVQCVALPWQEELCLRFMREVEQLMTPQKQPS

`CNCCC(Oc1ccc(C(F)(F)F)cc1)c1ccccc1.Cl` (stereo unspecified) [FLUOXETINE HYDROCHLORIDE] was tested, and the Time [1] was 92.19 s and the Time [2] was 92.64 s.
`O=C(Nc1ccccc1)C1CCN(C(c2ccc(F)cc2)c2ccc(F)cc2)CC1` was tested, and the IC50 [3] was over 100 µM.
`O=C(Nc1ccccc1)C1CCN(C(c2ccccc2)c2ccccc2)CC1` showed an IC50 [3] of over 100 µM.
`Cc1cc(C)cc(NC(=O)C2CCN(C(c3ccc(F)cc3)c3ccc(F)cc3)CC2)c1` showed an IC50 [3] of over 100 µM.
For `COc1cccc(C(=O)N2CCC(C(=O)Nc3cccc(O)c3)CC2)c1`, the IC50 [3] was over 100 µM.
`O=C(Nc1cccc(Cl)c1)C1CCN(C(=O)c2ccc(Cl)cc2)CC1` gave an IC50 [3] of over 100 µM.
For `Cc1cc(C)cc(NC(=O)C2CCN(C(c3ccccc3)c3ccccc3)CC2)c1`, the IC50 [3] was over 100 µM.
With `CC(C)(C)c1ccc(CN2CCN(C(=S)Sc3ccc([N+](=O)[O-])cc3[N+](=O)[O-])CC2)cc1` the IC50 [4] was 1.74 µM.
In the case of `COc1cccc(NC(=O)C2CCN(C(c3ccccc3)c3ccccc3)CC2)c1`, the IC50 [3] is reported as over 100 µM.
Work on `O=C(Nc1cccc(Cl)c1)C1CCN(C(=O)c2ccccc2O)CC1` yielded an IC50 [3] of over 100 µM.
